Results on two compounds are retold here after US12459891B2, “1-[1-(4-benzyloxy-3,5-difluoro-benzoyl)-4-fluoro-pyrrolidine-2-carbonyl]-pyrrolidine-2-carbonitrile” (ACCURE THERAPEUTICS, S.L., priority 2020, dated 2025).

The target of this test is T1, 5-HT1A receptor (Homo sapiens, UniProt P08908).
T1 construct: purchased Cerep/Eurofins SafetyScreen44 panel
T1 sequence (P08908 1-422): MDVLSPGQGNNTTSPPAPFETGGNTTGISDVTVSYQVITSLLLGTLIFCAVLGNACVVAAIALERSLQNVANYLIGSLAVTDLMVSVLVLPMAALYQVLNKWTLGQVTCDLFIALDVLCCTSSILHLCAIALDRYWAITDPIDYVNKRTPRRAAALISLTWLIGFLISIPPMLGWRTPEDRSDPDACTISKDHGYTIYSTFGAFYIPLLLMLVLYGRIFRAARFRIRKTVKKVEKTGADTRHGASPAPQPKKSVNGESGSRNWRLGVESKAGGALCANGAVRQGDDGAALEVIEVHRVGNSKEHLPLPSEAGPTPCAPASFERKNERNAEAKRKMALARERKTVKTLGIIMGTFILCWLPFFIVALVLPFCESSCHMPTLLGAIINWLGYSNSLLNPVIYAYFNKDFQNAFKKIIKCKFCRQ
Kind of test: Selectivity profile, radioligand binding (SafetyScreen44 panel). The conditions noted are these: 100 μM compound (1% DMSO); read-out: % inhibition of control specific binding. The method, then: The experiment was performed using the SafetyScreen44® panel from Cerep/Eurofins. Compounds were tested at a concentration 100 μM (in 1% DSMO).
Compound binding was calculated as a percentage inhibition of the binding of a radioactively labeled ligand specific for each target.
The results are expressed as a percent inhibition of control specific binding
[formula] obtained in the presence of tested compounds.
Results showing an inhibition higher than 50% are considered to represent significant effects of the test compounds.

As to `COc1cc(C(=O)N2CC(F)(F)C[C@H]2C(=O)N2CCC[C@H]2C#N)cc(OC)c1OCc1ccccc1` [Comp Ex. 3, (S)-1-((2S)-1-(4-(benzyloxy)-3,5-dimethoxybenzoyl)-4,4-difluoropyrrolidine-2-carbonyl)pyrrolidine-2-carbonitrile], the inhibition at 100 µM amounted to 64.6%.

For `N#C[C@@H]1CCCN1C(=O)[C@@H]1C[C@@H](F)CN1C(=O)c1cc(F)c(OCc2ccccc2)c(F)c1` [Example 1, (S)-1-((2S,4R)-1-(4-(benzyloxy)-3,5-difluorobenzoyl)-4-fluoropyrrolidine-2-carbonyl)pyrrolidine-2-carbonitrile], the inhibition at 100 µM is -6.3%.
